Assay results: ChEMBL document CHEMBL1153990, “Exploring the PI3K alpha and gamma binding sites with 2,6-disubstituted isonicotinic derivatives” (Bioorg Med Chem Lett, 2009)

Columns and labels:
[1] = molecular target: Phosphatidylinositol 4,5-bisphosphate 3-kinase catalytic subunit alpha isoform (Homo sapiens, UniProt P42336); assay: Inhibition of PI3Kalpha by luminescent kinase glo assay; conditions: for inhibition: concentration not given here
[2] = molecular target: Phosphatidylinositol 4,5-bisphosphate 3-kinase catalytic subunit gamma isoform (Homo sapiens, UniProt P48736); assay: Inhibition of PI3Kgamma by luminescent kinase glo assay
[3] = Selectivity ratio of IC50 for PI3Kgamma to IC50 for PI3Kalpha

Phosphatidylinositol 4,5-bisphosphate 3-kinase catalytic subunit alpha isoform, sequence (P42336 whole entry, canonical isoform): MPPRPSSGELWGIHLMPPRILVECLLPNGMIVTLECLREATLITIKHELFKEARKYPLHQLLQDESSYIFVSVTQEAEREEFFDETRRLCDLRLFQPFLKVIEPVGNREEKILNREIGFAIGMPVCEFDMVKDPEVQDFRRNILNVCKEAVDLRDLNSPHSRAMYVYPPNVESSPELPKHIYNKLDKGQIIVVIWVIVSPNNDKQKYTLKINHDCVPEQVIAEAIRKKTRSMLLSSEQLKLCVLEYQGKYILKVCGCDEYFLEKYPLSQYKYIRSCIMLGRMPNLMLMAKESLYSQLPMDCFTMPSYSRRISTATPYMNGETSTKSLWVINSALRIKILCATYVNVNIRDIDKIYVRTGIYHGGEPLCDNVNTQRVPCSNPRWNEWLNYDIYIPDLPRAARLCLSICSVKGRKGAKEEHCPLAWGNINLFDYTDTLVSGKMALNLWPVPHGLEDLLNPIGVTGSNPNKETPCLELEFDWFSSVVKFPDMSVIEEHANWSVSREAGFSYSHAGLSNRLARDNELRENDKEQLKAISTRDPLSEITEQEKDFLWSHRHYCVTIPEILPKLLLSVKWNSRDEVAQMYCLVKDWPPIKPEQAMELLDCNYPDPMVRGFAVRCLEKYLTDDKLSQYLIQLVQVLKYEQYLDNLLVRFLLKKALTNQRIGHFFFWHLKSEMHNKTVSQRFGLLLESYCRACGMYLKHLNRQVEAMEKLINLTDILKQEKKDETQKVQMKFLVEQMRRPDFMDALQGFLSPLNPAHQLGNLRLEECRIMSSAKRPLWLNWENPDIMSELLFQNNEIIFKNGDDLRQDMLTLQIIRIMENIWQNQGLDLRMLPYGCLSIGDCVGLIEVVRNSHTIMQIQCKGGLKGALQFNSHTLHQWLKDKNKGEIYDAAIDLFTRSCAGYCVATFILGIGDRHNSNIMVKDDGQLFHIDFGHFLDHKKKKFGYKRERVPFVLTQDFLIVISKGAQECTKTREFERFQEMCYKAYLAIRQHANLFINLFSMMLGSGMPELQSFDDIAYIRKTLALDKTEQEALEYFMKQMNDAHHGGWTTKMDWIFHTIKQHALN
Phosphatidylinositol 4,5-bisphosphate 3-kinase catalytic subunit gamma isoform, sequence (P48736 whole entry, canonical isoform): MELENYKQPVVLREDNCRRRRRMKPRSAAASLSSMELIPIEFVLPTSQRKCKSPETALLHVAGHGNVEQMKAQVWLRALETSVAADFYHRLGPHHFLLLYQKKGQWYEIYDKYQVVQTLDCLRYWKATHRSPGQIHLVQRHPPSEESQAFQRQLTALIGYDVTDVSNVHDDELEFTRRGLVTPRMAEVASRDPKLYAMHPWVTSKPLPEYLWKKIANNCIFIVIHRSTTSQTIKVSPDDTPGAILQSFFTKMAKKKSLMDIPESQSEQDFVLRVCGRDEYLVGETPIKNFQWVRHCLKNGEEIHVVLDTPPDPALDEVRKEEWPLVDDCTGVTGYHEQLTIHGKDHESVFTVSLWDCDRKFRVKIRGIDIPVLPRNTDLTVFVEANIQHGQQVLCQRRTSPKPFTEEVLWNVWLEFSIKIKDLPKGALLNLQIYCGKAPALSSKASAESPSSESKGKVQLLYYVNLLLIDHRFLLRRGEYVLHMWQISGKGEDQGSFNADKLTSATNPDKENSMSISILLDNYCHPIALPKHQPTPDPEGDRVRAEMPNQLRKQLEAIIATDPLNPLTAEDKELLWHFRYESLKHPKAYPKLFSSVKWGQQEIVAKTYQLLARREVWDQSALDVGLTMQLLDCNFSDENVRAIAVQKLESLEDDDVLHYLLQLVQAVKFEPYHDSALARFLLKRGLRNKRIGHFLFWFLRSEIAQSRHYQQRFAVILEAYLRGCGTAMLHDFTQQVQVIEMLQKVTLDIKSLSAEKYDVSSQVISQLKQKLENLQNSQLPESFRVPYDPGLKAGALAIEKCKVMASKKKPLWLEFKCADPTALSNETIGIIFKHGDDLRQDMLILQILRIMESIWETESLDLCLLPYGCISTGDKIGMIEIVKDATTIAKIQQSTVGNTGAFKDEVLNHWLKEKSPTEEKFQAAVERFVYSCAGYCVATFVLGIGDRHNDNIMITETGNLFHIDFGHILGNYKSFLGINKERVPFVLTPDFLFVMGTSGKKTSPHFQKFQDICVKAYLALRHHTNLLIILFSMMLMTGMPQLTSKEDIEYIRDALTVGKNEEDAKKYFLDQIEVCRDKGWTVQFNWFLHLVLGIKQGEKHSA

Compound	IC50 [1]	IC50 [2]	Ratio IC50 [3]	inhibition [1]
Cc1cc(F)ccc1OCc1cc(C(=O)O)cc(N2CCOCC2)n1	7 µM	23 µM	6	–
Cc1cc(F)ccc1NCc1cc(C(=O)O)cc(-c2ccc(O)cc2)n1	100 µM	100 µM	–	–
Cc1cc(F)ccc1NCc1cc(C(=O)O)cc(Cl)n1	> 100 µM	> 100 µM	–	–
Cc1cc(F)ccc1NCc1cc(C(=O)O)cc(N2CCCC2)n1	–	> 100 µM	–	< 10%
Cc1cc(F)ccc1NCc1cc(C(=O)O)cc(N2CCOCC2)n1	5 µM	34 µM	–	–
Cc1cc(F)ccc1NCc1cc(CO)cc(N2CCOCC2)n1	20 µM	≥ 100 µM	–	–
Cc1cc(F)ccc1NCc1cc(C(=O)O)cc(-c2cccc(O)c2)n1	100 µM	42 µM	–	–
Cc1cc(F)ccc1NCc1cc(C(=O)O)cc(-c2ccncc2)n1	29 µM	42 µM	–	–
Cc1cc(F)ccc1NCc1cc(C(=O)O)cc(N2CCCCC2)n1	–	> 100 µM	–	< 10%
Cc1cc(F)ccc1NCc1cc(C(=O)O)cc(N2CCNCC2)n1	> 100 µM	> 100 µM	–	–
Cc1cc(F)ccc1NCc1cc(C(=O)N2CCC(O)C2)cc(N2CCC(O)C2)n1 (stereo not drawn)	> 100 µM	> 100 µM	–	–
Cc1cc(F)ccc1NCc1cc(C(=O)O)cc(N(C)CCO)n1	> 100 µM	> 100 µM	–	–
Cc1cc(F)ccc1OCc1cc(C(N)=O)cc(N2CCOCC2)n1	> 10 µM	< 10 µM	–	–
Cc1cc(F)ccc1NCc1cc(C(=O)O)cc(-c2ccccc2O)n1	> 100 µM	> 100 µM	–	–
Cc1cc(F)ccc1NCc1cc(C(=O)O)cc(N2CCC(O)C2)n1 (stereo not drawn)	> 100 µM	> 100 µM	–	–
Cc1cc(F)ccc1NCc1cc(C=O)cc(N2CCOCC2)n1	100 µM	100 µM	–	–
Cc1cc(F)ccc1OCc1cc(C(=O)NCCO)cc(N2CCOCC2)n1	≥ 50 µM	≥ 50 µM	–	–

Continued, values first:

IC50 [1]	IC50 [2]	Ratio IC50 [3]	inhibition [1]	Compound
≥ 10 µM	10 µM	–	–	Cc1cc(F)ccc1OCc1cc(C(=O)NO)cc(N2CCOCC2)n1
51 µM	> 100 µM	–	–	CCOC(=O)c1ccnc(N2CCOCC2)c1
> 100 µM	> 100 µM	–	–	Cc1cc(F)ccc1NCc1cc(C(=O)O)cc(N(CCO)CCO)n1
> 100 µM	> 100 µM	–	–	Cc1cc(F)ccc1NCc1cc(C(=O)NCCO)cc(NCCO)n1
–	< 10 µM	–	< 10%	CCOC(=O)c1cc(COc2ccc(F)cc2C)nc(N2CCOCC2)c1
100 µM	> 100 µM	–	–	Cc1cc(F)ccc1NCc1cc(C(=O)O)cc(NCCO)n1
36 µM	> 100 µM	–	–	O=C(O)c1ccnc(N2CCOCC2)c1
> 100 µM	> 100 µM	–	–	Cc1cc(F)ccc1NCc1cc(C(=O)O)cc(-c2cccnc2)n1
–	< 10 µM	–	< 10%	CCOC(=O)c1cc(CNc2ccc(F)cc2C)nc(N2CCOCC2)c1
